Measured values: PubChem BioAssay (NCI)
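Values below derive from 48-hour exposures of cells grown in 96-well plates, with endpoints linearly interpolated between the two concentrations bracketing the appropriate inhibition level. GI50: concentration for 50% inhibition of growth. TGI: total growth inhibition.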

Experiments:
Assay in all cases: NCI anticancer screen, dose series, 48 h
A498 renal = system: A498 renal
BT-549 breast = system: BT-549 breast
HCC-2998 colon = system: HCC-2998 colon
HL-60(TB) leukemia = system: HL-60(TB) leukemia
IGROV1 ovarian = system: IGROV1 ovarian
MDA-MB-435 = system: MDA-MB-435
OVCAR-8 ovarian = system: OVCAR-8 ovarian
SF-295 CNS = system: SF-295 CNS
SR leukemia = system: SR leukemia
U251 CNS = system: U251 CNS

SMILES | GI50 (A498 renal) [µM] | TGI (A498 renal) [µM] | GI50 (BT-549 breast) [µM] | TGI (BT-549 breast) [µM] | GI50 (HCC-2998 colon) [µM] | TGI (HCC-2998 colon) [µM] | GI50 (HL-60(TB) leukemia) [µM] | TGI (HL-60(TB) leukemia) [µM] | GI50 (IGROV1 ovarian) [µM] | TGI (IGROV1 ovarian) [µM] | GI50 (MDA-MB-435) [µM] | TGI (MDA-MB-435) [µM] | GI50 (OVCAR-8 ovarian) [µM] | TGI (OVCAR-8 ovarian) [µM] | GI50 (SF-295 CNS) [µM] | GI50 (SR leukemia) [µM] | GI50 (U251 CNS) [µM] | TGI (U251 CNS) [µM] | TGI (SF-295 CNS) [µM] | TGI (SR leukemia) [µM]
C/C(=N\O)c1cccc(Nc2cc(-c3ccccc3)nc3c(O)cccc23)c1 | 3.31 | 18.1 | 11.8 | 52.3 | 3.68 | 14.2 | 4.71 | > 66.3 | 2.41 | 18 | 0.271 | 2.01 | 4.24 | 39 | 0.671 | 0.415 | 2.35 | 15.8 | – | –
CCCCCCc1cc2cc(-c3csc(/C=C/c4ccccc4)n3)c(=O)oc2cc1O | 14.4 | 30.5 | 35.6 | > 100 | 6.41 | 29.3 | 4.79 | 30.4 | 15.9 | 38.3 | 12.9 | 27.2 | 2.79 | 9.55 | 13.1 | 2.88 | 2.91 | 10.5 | 27.2 | 9.69
O=C1C=CC(=O)N1c1ccc(I)cc1 | – | 39.2 | – | 36 | – | 35.1 | – | 9.73 | – | > 67.3 | – | 34.7 | – | > 100 | – | – | – | > 54.9 | 55.5 | 45.5
Brc1ccc(Nc2nc3ccccc3nc2Nc2ccc(Br)cc2)cc1 | 0.0513 | 2.75 | 2.44 | 7.98 | 1.66 | 7.7 | 2.09 | 5.96 | 1.43 | 13.5 | 1.51 | 4.9 | 0.773 | 10.8 | 1.44 | 0.715 | 0.429 | 2.22 | 4.22 | 5.52
NC(=N\N=C/c1ccc(Cl)cc1Cl)/C(N)=N\N=C/c1ccc(Cl)cc1Cl | 2.21 | 8.37 | 45.3 | > 93.2 | > 94.7 | > 100 | > 100 | > 100 | 4 | > 100 | > 100 | > 100 | 20.7 | > 100 | 2.84 | > 100 | 1.02 | 19 | 89.8 | > 100
O=Cc1ccc(-c2ccc(-c3ccc(C=O)o3)[se]2)o1 | 0.302 | 10.5 | > 100 | > 100 | > 100 | > 100 | > 100 | > 100 | > 65.9 | > 100 | > 100 | > 100 | > 100 | > 100 | > 46.2 | > 100 | 44.8 | > 100 | > 65.6 | > 100
O=C(Nc1ccc(I)cc1)c1cccc([N+](=O)[O-])c1O | 1.65 | 6.55 | 3.01 | 19 | 4.19 | 44.3 | 2.96 | 9.32 | 6.15 | > 100 | 3.07 | > 100 | 4.37 | > 100 | 2.39 | 2.87 | 3.39 | > 100 | 11.3 | 19.8
